Measured values published in ChEMBL document CHEMBL4811228, “Design, Synthesis, and Activity Evaluation of Novel Acyclic Nucleosides as Potential Anticancer Agents In Vitro and In Vivo” (J Med Chem, 2021).

Tests used:
HCT-116 = assay: Antiproliferative activity against human HCT-116 cells assessed as reduction in cell viability incubated for 48 hrs by MTT assay; format: functional, cell-based; conditions: HCT-116, 48 h
SW480 = assay: Antiproliferative activity against human SW480 cells assessed as reduction in cell viability incubated for 48 hrs by MTT assay; format: functional, cell-based; conditions: SW480, 48 h

SMILES | IC50 (HCT-116) | IC50 (SW480)
OCCCn1cnc2c(Cl)nc(F)nc21 | 39.8 µM | 29.7 µM
CCCCCCCCC[C@H](CCOS(C)(=O)=O)n1cnc2c(Cl)ncnc21 | 9.48 µM | 9.72 µM
CCCCCCCCC[C@H](CCN=[N+]=[N-])n1cnc2c(Cl)ncnc21 | 1.19 µM | 1.22 µM
CCCCCCCC[C@@H](CCO)n1cnc2c(Cl)ncnc21 | 3.4 µM | 2.33 µM
CCCCCCC[C@@H](CCO)n1cnc2c(Cl)ncnc21 | 10.7 µM | 3.82 µM
CCCCCCC[C@H](CCO)n1cnc2c(Cl)ncnc21 | 2.67 µM | 2.93 µM
CCCCCCCC[C@H](CCO)n1cnc2c(Cl)ncnc21 | 1.12 µM | 0.32 µM
CCCCCCCCC[C@@H](CCO)n1cnc2c(Cl)ncnc21 | 1.05 µM | 3.62 µM
CCCCCCCCC[C@H](CCO)n1cnc2c(Cl)ncnc21 | 0.45 µM | 1.63 µM
CCCCCCCCC[C@H](CCOCP(=O)(OCC)OCC)n1cnc2c(Cl)ncnc21 | 10.9 µM | 5.57 µM
CCCCCCCCC[C@H](CCn1cc(-c2ccccc2)nn1)n1cnc2c(Cl)ncnc21 | 8.13 µM | 8.57 µM
CCCCCCCCC[C@H](CCCl)n1cnc2c(Cl)ncnc21 | 9.58 µM | 3.18 µM
CCCCCCCCCC(CCO)n1cnc2c(N)nc(Cl)nc21 (racemic) | 14.8 µM | 12.2 µM
CCCCCCCCC(CCO)n1c(Br)nc2c(Cl)ncnc21 (racemic) | 22.4 µM | 17.8 µM
CCCCCC(CCO)n1cnc2cncnc21 (racemic) | > 50 µM | > 50 µM
O=C(OCC(CCO)n1cnc2c(Cl)ncnc21)c1ccccc1 (racemic) | > 50 µM | > 50 µM
CCCCCCCC(CCO)n1cnc2c(Cl)nc(F)nc21 (racemic) | 17.6 µM | 26.1 µM
CCCCCCCCC(CCO)n1cnc2c(N)nc(Cl)nc21 (racemic) | 21 µM | 13.1 µM
CCCCCC(CCO)n1cnc2c(Cl)nc(F)nc21 (racemic) | 8.66 µM | 7.44 µM
CCCCCCCCCC(CCO)n1cnc2c(Cl)nc(F)nc21 (racemic) | 32 µM | 12.5 µM
CCCCCCC(CCO)n1cnc2c(NC)ncnc21 (racemic) | > 50 µM | > 50 µM
CCCCCC(CCO)n1cnc2c(Cl)nc(Cl)nc21 (racemic) | 6.17 µM | 6.01 µM
CC(C)(C)[Si](C)(C)OCC(CCO)n1cnc2c(Cl)ncnc21 (racemic) | > 50 µM | 31.7 µM

SMILES | IC50 (HCT-116) | IC50 (SW480)
CCCCCC(CCO)n1cnc2c(N)nc(Cl)nc21 (racemic) | > 50 µM | > 50 µM
CCCCCCC(CCO)n1cnc2c(N)nc(Cl)nc21 (racemic) | > 50 µM | > 50 µM
CCCCCCCCC(CCO)n1cnc2c(N)ncnc21 (racemic) | 11.6 µM | 20.7 µM
CCCCCCCC(CCO)n1c(Br)nc2c(Cl)ncnc21 (racemic) | 16.2 µM | 14.4 µM
O=C(OCC(CCO)n1cnc2c(Cl)nc(F)nc21)c1ccccc1 (racemic) | 5.17 µM | 7.24 µM
CCCCCCCCCCCC(CCO)n1cnc2c(N)nc(Cl)nc21 (racemic) | 19.9 µM | 17.8 µM
CCCCCCCC(CCO)n1cnc2c(OC)ncnc21 (racemic) | 15.3 µM | 23.9 µM
CCCCCCCC(CCO)n1cnc2c(N)ncnc21 (racemic) | > 50 µM | > 50 µM
CCCCCC(CCO)n1cnc2c(OC)ncnc21 (racemic) | > 50 µM | > 50 µM
CCCCCCC(CCO)n1cnc2c(OC)ncnc21 (racemic) | > 50 µM | > 50 µM
OCCC(COCc1ccccc1)n1cnc2c(Cl)nc(F)nc21 (racemic) | 5.24 µM | 7.17 µM
CCCCCCCC(CCO)n1cnc2c(N)nc(Cl)nc21 (racemic) | > 50 µM | > 50 µM
CCCCCCCCCC(CCO)n1cnc2c(NC)ncnc21 (racemic) | 5.41 µM | 4.45 µM
CCCCCCC(CCO)n1cnc2c(Cl)ncnc21 (racemic) | 11.9 µM | 16.7 µM
CCCCCCCCCCCC(CCO)n1cnc2c(N(C)C)ncnc21 (racemic) | 12 µM | 11.8 µM
CCCCCCCCCCCC(CCO)n1cnc2c(NC)ncnc21 (racemic) | 15.4 µM | 12.8 µM
C=C(CO)C(CCCCCC)n1cnc2c(Cl)ncnc21 (racemic) | 30.2 µM | 32 µM
CCCCCCCCCCC(CCO)n1cnc2c(NC)ncnc21 (racemic) | 12.7 µM | 12 µM
CCCCCCCC(CCO)n1cnc2c(Cl)nc(Cl)nc21 (racemic) | 12.8 µM | 13.6 µM
CCCCCCCCCC(CCO)n1cnc2c(OC)ncnc21 (racemic) | 2.53 µM | 3.25 µM
CCC(CCO)n1cnc2c(Cl)ncnc21 (racemic) | > 50 µM | > 50 µM
CCCCCCC(CCO)n1c(Br)nc2c(Cl)ncnc21 (racemic) | 16.1 µM | 14.1 µM
CCCCCCCC(CCO)n1cnc2c(NC)ncnc21 (racemic) | 12.5 µM | 15.3 µM

SMILES | IC50 (HCT-116) | IC50 (SW480)
CCCCCCCCCC(CCO)n1cnc2c(Cl)nc(Cl)nc21 (racemic) | 32.6 µM | 36.3 µM
CCCCCCCCC(CCO)n1cnc2c(Cl)ncnc21 (racemic) | 1.65 µM | 1.37 µM
CCCCCCCCCCC(CCO)n1cnc2c(N(C)C)ncnc21 (racemic) | 5.49 µM | 3.32 µM
CCCCCCCCCC(CCO)n1c(Br)nc2c(Cl)ncnc21 (racemic) | 26.9 µM | 25 µM
CCCCCCCCCCCC(CCO)n1cnc2c(OC)ncnc21 (racemic) | 8.23 µM | 9.7 µM
CCCCCCCCCCCC(CCO)n1cnc2c(N)ncnc21 (racemic) | 13.3 µM | 11.6 µM
CC(C)(C)[Si](C)(C)OCC(CCO)n1cnc2c(Cl)nc(F)nc21 (racemic) | 7.78 µM | 8.02 µM
CCCCCCC(CCO)n1cnc2c(Cl)nc(Cl)nc21 (racemic) | 12.1 µM | 12.4 µM
OCCC(COCc1ccccc1)n1cnc2c(Cl)ncnc21 (racemic) | > 50 µM | > 50 µM
CCCCCC(CCO)n1cnc2c(NC)ncnc21 (racemic) | > 50 µM | > 50 µM
CCCCC(CCO)n1cnc2cncnc21 (racemic) | > 50 µM | > 50 µM
CCCCCC(CCO)n1c(Br)nc2c(Cl)ncnc21 (racemic) | 18.3 µM | 23.8 µM
CCCCCCCCC(CCO)n1cnc2c(N(C)C)ncnc21 (racemic) | 19.8 µM | 21.6 µM
CCC(CCO)n1cnc2c(Cl)nc(F)nc21 (racemic) | 18.9 µM | 19.8 µM
CC(CCO)n1cnc2c(Cl)nc(F)nc21 (racemic) | 19.8 µM | 16.8 µM
CCCCCCCCCCC(CCO)n1cnc2c(Cl)ncnc21 (racemic) | 4.93 µM | 3.16 µM
CCCCCCC(CCO)n1cnc2c(Cl)nc(F)nc21 (racemic) | 9.96 µM | 12.9 µM
CCCCCCCCCCC(CCO)n1cnc2c(OC)ncnc21 (racemic) | 7.53 µM | 8.26 µM
CCCCC(CCO)n1cnc2c(OC)ncnc21 (racemic) | > 50 µM | > 50 µM
CCCCCC(CCO)n1cnc2c(N)ncnc21 (racemic) | > 50 µM | > 50 µM
CCCCCC(CCO)n1cnc2c(Cl)ncnc21 (racemic) | > 50 µM | > 50 µM
CCCCCCCCC(CCO)n1cnc2c(Cl)nc(F)nc21 (racemic) | 24.2 µM | 15 µM
CCCCCCCCCCC(CCO)n1cnc2c(N)nc(Cl)nc21 (racemic) | 11.8 µM | 13.1 µM

SMILES | IC50 (HCT-116) | IC50 (SW480)
CCCCCCCCC(CCO)n1cnc2c(Cl)nc(Cl)nc21 (racemic) | 22.2 µM | 24 µM
CCCCCCCCC(CCO)n1cnc2c(OC)ncnc21 (racemic) | 12.8 µM | 24.6 µM
CC(CCO)n1cnc2c(Cl)ncnc21 (racemic) | > 50 µM | > 50 µM
CCCCC(CCO)n1cnc2c(Cl)nc(Cl)nc21 (racemic) | 15.5 µM | 30.9 µM
C=C(CO)C(CCCCC)n1cnc2c(Cl)ncnc21 (racemic) | > 50 µM | > 50 µM
CCCC(CCO)n1cnc2c(Cl)ncnc21 (racemic) | > 50 µM | > 50 µM
CCCCCCCCC(CCO)n1cnc2c(NC)ncnc21 (racemic) | 3.73 µM | 3.77 µM
CCCCCCCCCC(CCO)n1cnc2c(N)ncnc21 (racemic) | 10.5 µM | 6.03 µM
CCCCC(CCO)n1cnc2c(Cl)nc(F)nc21 (racemic) | 13.5 µM | 13.2 µM
CCCCCCC(CCO)n1cnc2c(N)ncnc21 (racemic) | > 50 µM | > 50 µM
CCCCCCC(CCO)n1cnc2c(N(C)C)ncnc21 (racemic) | > 50 µM | > 50 µM
CCCCCCCCCCCCC(CCO)n1cnc2c(Cl)ncnc21 (racemic) | > 50 µM | > 50 µM
C=C(CO)C(CCCCCCC)n1cnc2c(Cl)ncnc21 (racemic) | 22.4 µM | 29.4 µM
CCCCCCCCCCCC(CCO)n1cnc2c(Cl)ncnc21 (racemic) | 7.59 µM | 5.29 µM
CCCCC(CCO)n1cnc2c(N)ncnc21 (racemic) | > 50 µM | > 50 µM
CCCCCCCCCC(CCO)n1cnc2c(N(C)C)ncnc21 (racemic) | 9.81 µM | 12.2 µM
CCCC(CCO)n1cnc2c(Cl)nc(F)nc21 (racemic) | 16.5 µM | 17.2 µM
CCCCCCCC(CCO)n1cnc2c(Cl)ncnc21 (racemic) | 4.16 µM | 3.63 µM
CCCCCCCC(CCO)n1cnc2c(N(C)C)ncnc21 (racemic) | > 50 µM | > 50 µM
CCCCC(CCO)n1cnc2c(Cl)ncnc21 (racemic) | > 50 µM | > 50 µM
CCCCCCC(CCO)n1cnc2cncnc21 (racemic) | > 50 µM | > 50 µM
CCCCCC(CCO)n1cnc2c(N(C)C)ncnc21 (racemic) | > 50 µM | > 50 µM
